Legend:
[1] = Pharmacokinetics after oral dose in fasted male Sprague-Dawley rats (plasma and brain); assay type: in vivo; settings: rat
Description: Groups of three fasted male Sprague-Dawley rats received a 10 μmol/kg ([…]) oral dose of the test compound, administered by gavage. The compounds were prepared as a solution in a 10% DMSO/poly(ethylene glycol)-400 (v/v). Blood samples were obtained from each animal at various time points up to eight hours after dosing.
Test compound was selectively extracted from plasma and brain homogenate using liquid-liquid extraction with tert-butylmethylether. The compounds of interest were separated from co-extracted contaminants on a 50×3 mm, Luna CN column (Phenomenex), with an acetonitrile:0.1% aqueous trifluoroacetic acid mobile phase at a flow rate of 0.35 ml/min. Plasma concentrations were determined by HPLC-MS/MS on an API2000 with Turbo Ion Spray interface, with MRM detection in the positive ionization mode. To calibrate compound concentration, a separate portion of each tissue sample was spiked with a known quantity of test compound and analyzed simultaneously with the samples.

osteoarthritic rats = assay: Effects on hind limb grip force in MIA-induced osteoarthritic rats; assay type: in vivo
Description: Unilateral knee joint osteoarthritis was induced in the rats by a single intra-articular (i.a.) injection of sodium monoiodoacetate (MIA) (Sigma, St. Louis, Mo.) (3 mg in 0.05 mL sterile isotonic saline) into the joint cavity using a 26G needle under light (2-4%) halothane (Halocarbon Laboratories, River Edge, N.J.) anesthesia. Following injection, the animals were allowed to recover from the effects of anesthesia (usually 5-10 minutes) before returning them to their home cages. Animals were tested 21 days after MIA injection. Measurements of peak hind limb grip force were conducted by recording the maximum compressive force exerted on the hind limb strain gauge setup, in a commercially available grip force
(§1) FIG. 1—depicts the effect of Example 1 on hindlimb grip force in osteoarthritic rats measurement system (Columbus Instruments, Columbus, Ohio). […] During testing, each rat was gently restrained by grasping around its rib cage and then allowed to grasp the wire mesh frame (10-12 cm^2) attached to the strain gauge. The experimenter then moved the animal in a rostral-to-caudal direction until the grip was broken. Each rat was sequentially tested twice at approximately 2-minute interval to obtain a raw mean grip force (CFmax). […] At the 100 μmol/kg dose in the osteoarthritis grip force model, the measured plasma concentration of Example 1 was 6.2 μM.

[2] = Plasma concentration measured in the osteoarthritis grip force model; assay type: in vivo, rats
Source text: as §1, with “(CFmax). This raw mean grip force data was in turn converted to a maximum hind limb compressive force (CFmax) (gram force) per kg body weight for each animal. A group of age matched naïve animals was added to each experiment and the data obtained from the different dose groups for the compound being tested were compared to the naïve group.” for “(CFmax).”

Human TRPA1 = Human TRPA1 (Homo sapiens (Human), UniProt O75762); assay: FLIPR based intracellular Ca2+ assay and membrane potential assay, inhibition of AITC-activated TRPA1; assay type: cell-based; settings: Table 1, AITC as agonist, HEK293-F cells transiently expressing human TRPA1
Description: Molecular biology and transient expression were performed as described in Chen, J. et al., Journal of Biomolecular Screening 2007, 12, 61-69. Briefly, TRPA1 full length cDNA was amplified from human dorsal root ganglia total RNA (BD Bioscience Clontech, Palo Alto, Calif., USA) and was cloned into pcDNA3.1/V5-His Topo vector (Invitrogen, Carlsbad, Calif.). Large scale transient transfection was performed using the FreeStyle™ 293 Expression System as recommended by the manufacturer (Invitrogen). HEK293-F cells were grown in suspension in flasks (cell volume 30 mL to 1 liter) or in a Wave Bioreactor (Wave Biotech, Somerset, N.J.) (6 liters). To support high density, suspension culture and transfection, cells were cultured in FreeStyle 293 media, an optimized, serum free formulation. 293fectin™ (Invitrogen) was used as transfection reagent. In a transfection of 3×10^7 cells (30 mL volume), 30 μg of plasmid DNA and 40 μL 293 fectin were used. For a larger volume transfection, each reagent was scaled up proportionally. Two days post-transfection, cells were harvested by centrifugation (1000×g, 5 minutes) and resuspended to a density of 1.5×10^7 cells/mL in freezing medium (Freestyle media/10% serum/10% DMSO). Cells were transferred into cryovials in 2 mL aliquots, and these vials were placed in Nalgene Mr. Frosty slow-freeze devices (Sigma-Aldrich, St. Louis, Mo.) at −80° C. As needed, vials were removed from −80° C. and quickly thawed in a 37° C. water bath. Cells were aseptically transferred into conical tubes containing Freestyle media (10 mL/vial). After centrifugation at 1,000×g for 3-5 minutes, medium was removed by aspiration and cells were resuspended in Freestyle medium at desired densities (typically 1×10^6 cells/mL). Re-suspended cells were seeded into black-walled clear-bottom 96-well Biocoat™ poly-D-lysine assay plates (BD Biosciences, Bedford, Mass.)(10^5 cells/well) and incubated overnight at 37° C. under a humidified 5% CO2 atmosphere.
FLIPR Based Intracellular Ca^2+ Assay and Membrane Potential Assay
Ca^2+ influx was measured using a FLIPR calcium assay kit (R8033; Molecular Devices, Sunnyvale, Calif.). The Ca^2+ indicator dye was dissolved in Hanks' balanced salt solution supplemented with 20 mM HEPES buffer (HBSS/HEPES) according to the manufacturer instructions. […] (4×) solutions of the test compounds were prepared in HBSS/HEPES, and 50 μL were added to the cells at a delivery rate of 10 μL/sec. Changes in fluorescence were measured over time in a fluorometric imaging plate reader (FLIPR, Molecular Devices). Two additions were made over the course of an experimental run. For agonist experiments, assay buffer was added at the 10 s time point, followed by addition of agonist at the 3 minute 10 sec time point. For antagonist experiments, the antagonist was added at the 10 sec time point, followed by addition of the agonist 3 minutes later. Final assay volume for both the agonist and antagonist experiments was 200 μL. Total length of an experimental run was 6.5 minutes.
Data was analyzed with GraphPad Prism® software (GraphPad Software, San Diego, Calif.), using a four-parameter logistic Hill equation to curve-fit concentration-effect data and derive EC50 or IC50 values. Numerical values are reported as mean±SEM (n=number of experiments). SEM is calculated by dividing the standard deviation by the square root of the sample size […].
Changes in membrane potential were measured in hTRPA1-expressing LSTT cells using a FLIPR membrane potential assay kit (R8034, Molecular Devices). The procedure for thawing and plating the LSTT cells was identical to the Ca^2+ influx assay (see above). The membrane potential dye was dissolved in HBSS/HEPES buffer according to the manufacturer's instructions, and then cells were loaded with dye (100 μL/well) for 45 minutes to 2 hours at room temperature.

Chain of Human TRPA1 (O75762 whole entry): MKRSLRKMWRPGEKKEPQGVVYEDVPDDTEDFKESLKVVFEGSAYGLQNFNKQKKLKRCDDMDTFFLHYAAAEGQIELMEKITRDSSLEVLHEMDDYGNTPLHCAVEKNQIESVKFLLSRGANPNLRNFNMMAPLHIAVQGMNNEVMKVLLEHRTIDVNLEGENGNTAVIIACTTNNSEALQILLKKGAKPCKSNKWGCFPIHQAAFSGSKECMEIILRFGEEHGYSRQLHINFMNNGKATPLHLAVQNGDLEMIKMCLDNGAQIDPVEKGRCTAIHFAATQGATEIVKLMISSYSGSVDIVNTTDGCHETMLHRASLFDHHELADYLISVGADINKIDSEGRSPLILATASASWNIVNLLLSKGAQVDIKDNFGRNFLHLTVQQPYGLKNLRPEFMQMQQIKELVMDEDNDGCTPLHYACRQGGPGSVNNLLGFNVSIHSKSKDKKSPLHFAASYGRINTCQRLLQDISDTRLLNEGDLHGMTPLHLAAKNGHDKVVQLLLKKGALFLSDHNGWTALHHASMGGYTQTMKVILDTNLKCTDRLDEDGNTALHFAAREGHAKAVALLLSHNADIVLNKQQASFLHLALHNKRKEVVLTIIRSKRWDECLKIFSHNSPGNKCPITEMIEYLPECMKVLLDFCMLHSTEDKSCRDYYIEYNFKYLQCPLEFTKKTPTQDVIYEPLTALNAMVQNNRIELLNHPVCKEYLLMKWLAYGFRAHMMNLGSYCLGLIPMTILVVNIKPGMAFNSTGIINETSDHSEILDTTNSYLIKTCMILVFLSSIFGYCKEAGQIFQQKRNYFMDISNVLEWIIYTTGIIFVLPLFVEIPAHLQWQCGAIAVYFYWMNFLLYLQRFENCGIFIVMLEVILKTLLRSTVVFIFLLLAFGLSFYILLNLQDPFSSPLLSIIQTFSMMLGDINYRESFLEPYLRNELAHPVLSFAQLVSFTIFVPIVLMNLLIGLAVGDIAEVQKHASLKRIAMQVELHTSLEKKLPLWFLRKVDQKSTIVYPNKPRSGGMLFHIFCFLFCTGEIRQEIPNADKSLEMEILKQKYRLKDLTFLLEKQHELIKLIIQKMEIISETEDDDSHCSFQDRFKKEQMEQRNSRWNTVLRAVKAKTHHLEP

CCC(=N\O)/C(C)=C/c1ccc(F)cc1 [Example 1, (1E,3E)-1-(4-fluorophenyl)-2-methylpent-1-en-3-one oxime]
Cmax ([1]; 10 umol/kg, oral, plasma): 720 nM
Kp ([1]; brain and plasma, 10 μmol/kg, after oral administration, text calls it brain/plasma ratio): 1.2
bioavailability ([1]; plasma, 10 umol/kg, oral gavage, solution in 10% DMSO/PEG-400): 38%
ED50 (osteoarthritic rats; Rattus norvegicus, po, 21 days after MIA injection, 95% CI 79-158 μmol/kg, read-out: ED50, hindlimb grip force): 112 µmol/kg
efficacy in osteoarthritis grip force model (osteoarthritic rats; p.o.): fully efficacious
measured plasma concentration ([2]; 100 μmol/kg oral dose, osteoarthritis grip force model): 6.2 µM
plasma and brain exposure ([2]; with increasing oral dose, rat): excellent plasma and brain exposure

CCC(=N\O)/C(C)=C/c1ccccc1F [Example 3, (1E,3E)-1-(2-fluorophenyl)-2-methylpent-1-en-3-one oxime]
IC50 (Human TRPA1): 4.6 µM

CCCC(=N\O)/C(C)=C/c1ccc(F)cc1 [Example 4, (1E,3E)-1-(4-fluorophenyl)-2-methylhex-1-en-3-one oxime]
IC50 (Human TRPA1): 0.5 µM

CC(=C\c1ccc(F)cc1)/C(=N/O)C(C)(C)C [Example 5, (1E,3E)-1-(4-fluorophenyl)-2,4,4-trimethylpent-1-en-3-one oxime]
IC50 (Human TRPA1): 8 µM

CCCCC(=N\O)/C(C)=C/c1ccc(F)cc1 [Example 6, (1E,3E)-1-(4-fluorophenyl)-2-methylhept-1-en-3-one oxime]
IC50 (Human TRPA1): 4.4 µM

CC(=C\c1ccc(F)cc1)/C(=N\O)C(C)C [Example 7, (1E,3Z)-1-(4-fluorophenyl)-2,4-dimethylpent-1-en-3-one oxime]
IC50 (Human TRPA1): 0.85 µM

CC(=C\c1ccc(F)cc1)/C(=N/O)C(C)C [Example 8, (1E,3E)-1-(4-fluorophenyl)-2,4-dimethylpent-1-en-3-one oxime]
IC50 (Human TRPA1): 3.3 µM

CCC(=N\O)/C(C)=C/c1ccc(F)c(Cl)c1 [Example 9, (1E,3E)-1-(3-chloro-4-fluorophenyl)-2-methylpent-1-en-3-one oxime]
IC50 (Human TRPA1): 6 µM

CC(/C=C/c1ccc(F)cc1)=N\O [Example 11, (2E,3E)-4-(4-fluorophenyl)but-3-en-2-one oxime]
IC50 (Human TRPA1): 20.6 µM

CCCC(/C=C/c1ccc(F)cc1)=N\O [Example 12, (1E,3E)-1-(4-fluorophenyl)hex-1-en-3-one oxime]
IC50 (Human TRPA1): 5.91 µM

CCC(=N\O)/C(C)=C/c1ccc(F)c(F)c1 [Example 14, (1E,3E)-1-(3,4-difluorophenyl)-2-methylpent-1-en-3-one oxime]
IC50 (Human TRPA1): 0.574 µM

CCC(=N\O)/C(C)=C/c1cc(F)c(F)c(F)c1 [Example 15, (1E,3E)-2-methyl-1-(3,4,5-trifluorophenyl)pent-1-en-3-one oxime]
IC50 (Human TRPA1): 4.67 µM

CCCCC(/C=C/c1ccc(F)cc1)=N\O [Example 16, (1E,3E)-1-(4-fluorophenyl)hept-1-en-3-one oxime]
IC50 (Human TRPA1): > 100 µM

CCC(=N\O)/C(C)=C/c1ccc(F)c(C)c1 [Example 17, (1E,3E)-1-(4-fluoro-3-methylphenyl)-2-methylpent-1-en-3-one oxime]
IC50 (Human TRPA1): > 100 µM

CCC(=N\O)/C(C)=C/c1ccc(F)c(C(F)(F)F)c1 [Example 18, (1E,3E)-1-[4-fluoro-3-(trifluoromethyl)phenyl]-2-methylpent-1-en-3-one oxime]
IC50 (Human TRPA1): > 100 µM

(1E,3E)-1-(4-fluorophenyl)pent-1-en-3-one oxime and (1E,3Z)-1-(4-fluorophenyl)pent-1-en-3-one oxime, about 1:1 mixture [Example 13]
IC50 (Human TRPA1): 9.46 µM

Reference: patent publication US9108905B2, “TRPA1 antagonists” (AbbVie Inc., priority 2008, dated 2015)
